Laboratory results from patent US11345691B2, “Prodrug modulators of the cystic fibrosis transmembrane conductance regulator protein and methods of use” (AbbVie Global Enterprises Ltd., priority 2019, dated 2022).

Assay: Phase 1 first-in-human single ascending dose pharmacokinetic study (Pharmacokinetic Study 1)
Type: in vivo
Conditions: after single oral 250 mg or 500 mg dose of Example 4—Prodrug; healthy adult subjects
Procedure: Evaluate the PK profile of Example 4, which is a prodrug of (5-{3-amino-5-[4-(trifluoromethoxy)benzene-1-sulfonyl]pyridin-2-yl}-1,3,4-oxadiazol-2-yl)methanol, in healthy human adult subjects.
Two open label Phase 1, first in human studies in adult healthy subjects were conducted to evaluate the safety, tolerability, and pharmacokinetics of single oral doses of Example 1 administered as an oral suspension and prodrug Example 4 capsule, respectively. Subjects were screened and enrolled based on pre-specified criteria for inclusion and exclusion. The safety in subjects was determined by clinical evaluation and by monitoring of laboratory parameters. Blood samples were longitudinally collected at pre-specified time points following the administration of Example 1 or Example 4—Prodrug to measure the plasma concentrations of study drug and determine the pharmacokinetics of Example 1 and Example 4—Prodrug.
For this study the inclusion criteria includes the following: • 1. […]
Plasma concentrations of Example 1 and Example 4—Prodrug were determined using validated methods. The values for the pharmacokinetic parameters of Example 1 or Example 4—Prodrug were determined using noncompartmental methods with WinNonlin Phoenix 8.1.

SMILES: CC(C)[C@H](N)C(=O)OCc1nnc(-c2ncc(S(=O)(=O)c3ccc(OC(F)(F)F)cc3)cc2N)o1 [Example 4, (5-{3-amino-5-[4-(trifluoromethoxy)benzene-1-sulfonyl]pyridin-2-yl}-1,3,4-oxadiazol-2-yl)methyl (2S)-2-amino-3-methylbutanoate]
- Plasma concentrations of intact Example 4—Prodrug: no quantifiable plasma concentrations
